The nature of data set [1]: Bioavailability study in dogs (oral capsule formulations; intraduodenal non-aqueous solution). The class given is in vivo, male beagle dogs. To be noted: for bioavailability: plasma.
Data set [2] in a line: Hygroscopicity study (moisture uptake, dynamic vapor sorption analyzer). The data set is classed as physicochemical. Particulars: for % Moisture Uptake: percentage weight gain. An excerpt: ^a Measured on a dynamic vapor sorption analyzer as percentage weight
Data set [3] can be described thus: Accelerated stability studies. The class given is physicochemical. Particulars: stored at 50° C.
Data set [4] is described as follows: Enterohepatic extraction ratio and theoretical maximum oral bioavailability. To be noted: dogs. The data set is classed as in vivo.
The nature of data set [5]: Aqueous solubility under acidic conditions. The class given is physicochemical. To be noted: water, pH<5.34. As to the method: The aqueous solubility of the diacid of the compound of Formula (I) is very limited under acidic conditions. The solubility is less than 0.1 ug/mL at pH<5.34.

Entries after “also recorded” stand apart in the source; their conditions may differ. Counter-ions that a name gives are not always drawn. Like-named read-outs stand apart in the source and are kept apart here. A value given as a limit tells only on which side of the number the result lay.

`CCCCn1ncc(/C=C(\Cc2cc3c(cc2OC)CCO3)C(=O)O)c1-c1ccc(Cl)cc1OCc1ccccc1C(=O)O` [Monoargininyl Salt, (E)-3-[1-n-Butyl-5-[2-(2-carboxyphenyl)methoxy-4-chlorophenyl]1H-pyrazol-4-yl]-2-[(5-methoxy-2,3-dihydrobenzofuran-6-yl)methyl]-prop-2-enoic Acid, Monoargininyl Salt]: in data set [1] (dog, oral capsule (with microcrystalline cellulose as diluent), 10 mg/kg), the “Mean % Oral Bioavailability ± SD” value worked out at 13.8 ± 7.6%. Further, in data set [1] (dogs, vs disodium salt or dissolution-enhancing formulations of the diacid), the “bioavailability compared with other forms (in words)” value is “increased bioavailability as compared to the disodium salt or dissolution-enhancing formulations of the diacid”. In addition, the “% Moisture Uptake” value in data set [2] (0% relative humidity) was determined as 0%; in data set [2] (10% relative humidity, listed as Monoarginine), 0.261%; in data set [2] (20% relative humidity, listed as Monoarginine) it was 0.382%; in data set [2] (30% relative humidity, listed as Monoarginine) it was 0.526%; in data set [2] (40% relative humidity, listed as Monoarginine), 0.689%; in data set [2] (50% relative humidity, listed as Monoarginine), 0.827%. The “% Moisture Uptake” value in data set [2] (60% relative humidity, listed as Monoarginine) turned out to be 0.982%; in data set [2] (70% relative humidity, listed as Monoarginine), 1.092%; in data set [2] (80% relative humidity, listed as Monoarginine), 1.434%; in data set [2] (90% relative humidity, listed as Monoarginine) it was 2.334%. Further, the “hygroscopicity (in words)” value in data set [2] (compared with diacid and amorphous disodium salt, listed as monoarginine salt) is recorded as “minimally hygroscopic; also recorded: slightly more hygroscopic than the diacid form; also recorded: considerably less hygroscopic than the amorphous disodium salt form”. The same compound gave a moisture absorbed in data set [2] (relative humidity range of 0 to 90%) of 2.3%. In data set [3], the chemical stability entry is “chemically stable for at least three weeks”.

A word on the bioavailability: it is dose-corrected exposure relative to a reference, in per cent. As usually defined, the solubility is the concentration that dissolves in the medium under given conditions. High values mean much dissolved substance, low ones little dissolved substance. Take `CCCCn1ncc(/C=C(\Cc2cc3c(cc2OC)CCO3)C(=O)O)c1-c1ccc(Cl)cc1OCc1ccccc1C(=O)O` [Diacid, (E)-3-[1-n-Butyl-5-[2-(2-carboxyphenyl)methoxy-4-chlorophenyl]-1H-pyrazol-4-yl]-2-[(5-methoxy-2,3-dihydrobenzofuran-6-yl)methyl]-prop-2-enoic acid]: the bioavailability in data set [1] (dog, po, 10 mg/kg, dogs, oral dosing of a simple capsule formulation, read-out: oral bioavailability) was determined as 3.9%; in data set [1] (dog, po, dog, oral capsule with 0.5% Tween 80 & 2 MEq NMG (also some microcrystalline cellulose, lactose, starch), read-out: Mean % Oral Bioavailability ± SD), 6.3 ± 5.3%; in data set [1] (dog, po, dog, oral capsule with 0.5% Tween 80 (also some microcrystalline cellulose, lactose, starch), read-out: Mean % Oral Bioavailability ± SD) it was 2.3 ± 3.7%. In addition, the hepatic extraction ratio in data set [4] (dog, in vivo) stood at 0.82. Also, the “theoretical maximum value of oral bioavailability” value in data set [4] (from enterohepatic extraction ratio) is reported as 18%. This compound also showed a solubility in data set [5] of less than 0.1 µg/mL. The “% Moisture Uptake” value is given as 0% in data set [2] (0% relative humidity); 0.077% in data set [2] (10% relative humidity); 0.088% in data set [2] (20% relative humidity); 0.126% in data set [2] (30% relative humidity); 0.184% in data set [2] (40% relative humidity); 0.245% in data set [2] (50% relative humidity). Moreover, the “% Moisture Uptake” value is recorded as 0.316% in data set [2] (60% relative humidity), 0.395% in data set [2] (70% relative humidity), 0.509% in data set [2] (80% relative humidity) and 0.518% in data set [2] (90% relative humidity).

Regarding `CCCCn1ncc(/C=C(\Cc2cc3c(cc2OC)CCO3)C(=O)O)c1-c1ccc(Cl)cc1OCc1ccccc1C(=O)O` [Disodium Salt], the bioavailability in data set [1] (dog, dog, non-aqueous solution (99% PEG 400, 1% DMSO) dosed intraduodenally, only 2 animals, read-out: Mean % Oral Bioavailability ± SD) was 14.5%; in data set [1] (dog, po, dog, oral capsule (with microcrystalline cellulose as diluent), read-out: Mean % Oral Bioavailability ± SD), 6.2%. In addition, the “% Moisture Uptake” value in data set [2] (0% relative humidity) amounted to 0%; in data set [2] (10% relative humidity), 1.849%; in data set [2] (20% relative humidity) it was 2.838%; in data set [2] (30% relative humidity) it was 3.821%; in data set [2] (40% relative humidity) it was 5.013%; in data set [2] (50% relative humidity) it was 6.773%. Moreover, the “% Moisture Uptake” value in data set [2] (60% relative humidity) came to 10.188%; in data set [2] (70% relative humidity), 15.919%; in data set [2] (80% relative humidity), 22.472%; in data set [2] (90% relative humidity) it was 33.671%.

The values are drawn from US6300359A, “(E)-3-[1-n-Butyl-5-[2-(2-carboxyphenyl)methoxy-4-chlorophenyl]-1H-pyrazol-4 -yl]-2-[(5-methoxy-2,3-dihydrobenzofuran-6-yl)methyl]-prop-2-enoic acid monoargininyl salt” (SmithKline Beecham Corporation, priority 2000, dated 2001).
